The values below are quoted from earlier work in US12303597B2, “Naloxone formulations for sublingual and/or buccal administration” (Pharmaceutical Productions, Inc., priority 2019, dated 2025).

SMILES strings stand for the structures. Where a name gives a salt, the structure may show the parent alone. Read-outs that look alike come from different tables or passages of the source.

With `C=CCN1CC[C@]23c4c5ccc(O)c4O[C@H]2C(=O)CC[C@@]3(O)[C@H]1C5` [Naloxone hydrochloride], the solubility in water result (hydrochloride) is listed as “soluble in water”.
On to `C=CCN1CC[C@]23c4c5ccc(O)c4O[C@H]2C(=O)CC[C@@]3(O)[C@H]1C5` [naloxone base, 17-allyl-4,5α-epoxy-3,14-dihydroxymorphinan-6-one], for which the solubility in water result is given as “insoluble in water”.
